One data set deals with various cancer cells. The note with it: various cancer cells in vitro; versus irinotecan; cited from earlier work.
The subject of data set [1] is c1498 murine AML (Acute Myeloid Leukemia) cells. The data set can be described thus: Survival of FACS-sorted phosphatidylserine-positive c1498 AML cells. It is filed as cell-based. The note with it: Mus musculus, c1498 cells treated with cytarabine (1 μM) for 24 hrs, estimated from growth rates. The source says:
FIG. 1A-FIG. 1C show the survival of phosphatidylserine-expressing AML cells. […] The rectangles indicate the sorted cells. […] About 1000 each of the sorted cells were placed into multi-well plates. When the cells reached sufficient numbers, they were counted at different time points to measure their growth rates. The growth rates were then used to estimate the initial live cell numbers. The following formula was used to calculate the minimal initial live cell numbers: Minimal initial cell number=Total cell population/(growth rate*t)(days to reach the current cell number).
To determine whether cells expression high-level of PS expression on the cell surface are destined to die, the viability of c1498 murine AML (Acute Myeloid Leukemia) cells treated with cytarabine (part of a classical chemotherapy regimen for human AML) was examined. Specifically, whether cell surface PS-expressing acute myelocytic leukemia (AML) cells survived was examined. FACS was used to identify and sort cells with high cell surface PS-expression and the ability to survive was measured. FIG. 1A-FIG. 1B). In FIG. 1A, FACS sorting of untreated c1498 cells (in DMEM with 8% FBS). The rectangles indicate the sorted cells. In FIG. 1B, FACS sorting of c1498 cells treated with cytarabine (1 μM) for 24 hrs). […] When the cells reached sufficient numbers, the cells were counted at different time points to measure growth rates. […]

For a further data set, the system named is c1498 AML. As to the kind of experiment: Survival of C57BL/6 mice injected with c1498 AML cells. The note with it: combination: cytarabine 100 mg/kg i.p. every 12 hrs for 3 times, then Annexin V-Fc i.p. 4 times at 72 hours intervals. Type of data set: in vivo. As to the method:
About 2×10^5 c1498 cells were injected into the tail vein of C57BL/6 mice. At 24 hrs after the injection, the mice were treated with 100 mg/kg cytarabine (injected i.p. every 12 hrs for 3 times). At 24 hrs after the last treatment, Annexin V-Fc was given i.p. 4 times at 72 hours intervals. The mice were then observed and sacrificed until they were moribund. Shown were the survival of different mice after they were treated with different antibody and drug combinations.
Whether Annexin V-IgG1Fc fusion protein can enhance the treatment of c1498 AML in syngeneic mice (C57BL/6) in combination with cytarabine, a commonly used drug for AML treatment, was examined. […] Here, about 2×10^5 c1498 cells were injected into the tail vein of C57BL/6 mice. At 24 hrs after the injection, the mice were treated with 100 mg/kg cytarabine (injected i.p. every 12 hrs for 3 times). At 24 hrs after the last treatment, Annexin V-Fc was given i.p. 4 times at 72 hours intervals. The mice were then observed and sacrificed until they are moribund.

The subject of another data set is KG1a human AML cell line. As to the kind of experiment: Phagocytosis assay with THP1-derived macrophages. Type of data set: cell-based. The note with it: untreated or doxorubicin-treated cells; 2 hrs incubation; versus isotype control (IgG1). As to the method:
THP1 cells transduced with mCherry were differentiated into macrophages following previously established procedures. The macrophages were then incubated with non-treated or doxorubicin-treated KG1a human AML cell line transduced with EGFP in the presence of either isotype control (IgG1) or AnnexinV-IgG1Fc. After 2 hrs of incubation, the macrophages and the KG1a cells they have engulfed were counted.
The ability of THP1-derived macrophages to phagocytose control or doxorubicin-treated […] cells was examined. […] Representative fluorescence images of phagocytosis assay. THP1 cells transduced with mCherry were differentiated into macrophages following previously established procedures. The cells were then incubated with non-treated or doxorubicin-treated KG1a human AML cell line transduced with EGFP in the presence of either isotype control (IgG1) or AnnexinV-IgG1Fc. After 2 hrs of incubation, the macrophages and the KG1a cells they have engulfed were counted (FIG. 2A). Quantitative estimates of phagocytosis of KG1a cells by THP1-derived macrophages, the phagocytic index was calculated as: (Average number of KG1a cells engulfed per macrophage)×(percentage of macrophages which have engulfed KG1a cells)×[…] (FIG. 2B).

The conditions of data set [2]: versus doxorubicin; cited from earlier work.

Like-named read-outs stand apart in the source and are kept apart here.

In the case of `CCc1c2c(nc3ccc(O)cc13)-c1cc3c(c(=O)n1C2)COC(=O)[C@]3(O)CC` [SN-38, 7-ethyl-10-hydroxy-camptothecin], in the data set with various cancer cells, the “cytotoxic activity relative to irinotecan” value is given as “up to 1,000 fold”. In the case of `Nc1ccn([C@@H]2O[C@H](CO)[C@@H](O)[C@@H]2O)c(=O)n1` [cytarabine], the viability at 1 µM is about 8% in data set [1] (read-out: proportion of PS+7AAD+ c1498 cells that remained viable and could proliferate); about 25% in data set [1] (read-out: proportion of PS+7AAD- c1498 cells that remained viable and could proliferate).

Regarding “Annexin V-IgG1Fc fusion protein: Annexin V fused to the Fc domain of IgG1; SEQ ID NO:85 is the form with secretion signal”, in the data set with c1498 AML, the “median survival of host mice” value was over 62 days. Besides, the “phagocytosis of AML cells by THP1-derived macrophages (phagocytic index)” value in the data set on KG1a human AML cell line was “effectively boosted the phagocytosis”. Regarding calicheamicin, in data set [2], the “potency relative to doxorubicin” value is on record as “approximately 4000 times”.

Source of the values: patent publication US20250136689A1, “COMPOSITIONS FOR AND METHODS OF TREATING HEMATOLOGICAL CANCERS” (Duke University, priority 2022, published 2025).
